In PMC4494927, “Discovery of a small molecule targeting SET-PP2A interaction to overcome BCR-ABLT315I mutation of chronic myeloid leukemia” (Oncotarget, 2015):

Key:
[1] = tested on: BCR-ABL; assay: Western blot of BCR-ABL expression in K562 cells; assay type: cell-based, human
Procedure: Protein samples (40 μg) were resolved on SDS-PAGE gels, transferred onto PVDF membranes (Millipore) and incubated overnight with primary antibodies to β-tubulin, BCR-ABL, p-BCR-ABL, SET, PP2Ac and p-PP2Ac. The membranes were incubated with horseradish peroxidase (HRP)-conjugated secondary antibody for 1 h, and the bands were visualized using an ECL detection kit following the manufacturer's instructions. For immunoprecipitation, cells were lysed in 20 mM Tris-HCl (pH 7.0), 150 mM NaCl, 1 mM EDTA, 1 mM MgCl and 0.5% NP-40 supplemented with a cocktail of protease and phosphatase inhibitors (Roche). Lysates (200 μg) were incubated with primary antibodies (1 μg) against SET or PP2Ac at 4 °C for 10 h, protein A/G plus agarose beads were then added for immunoprecipitation overnight at 4 °C. After wash, the immunoprecipitated proteins were separated by SDS-PAGE and analyzed by Western blotting.

[2] = tested on: K562 cells; assay: Cytotoxicity assay (CellTiter-Glo); assay type: cell-based, human
Procedure: Twenty types of tumor cell lines were seeded at 4000 cells per well in 96-well plates. […] Cell viability was measured with the CellTiter-Glo Luminescent Cell Viability Assay (Promega) according to the manufacturer's instructions. Luminescence was measured using an EnVision Multilabel Plate Reader (Perkin-Elmer). The cytotoxicity of TGI1002 was expressed as the percentage of luminescence relative to that of untreated cells.

[3] = biological target: T1, recombinant human SET protein (Homo sapiens, UniProt Q01105); assay: Microscale thermophoresis (MST) binding to NT647-labeled SET; conditions: 15 μM NT647-labeled SET, PBS pH 8.0, 25 °C
T1 construct: Genes encoding the full length of human SET (GenBank No.: AAA60318.1) was synthesized; made in house; host or cells: E. coli (pET-21a)
T1 sequence (Q01105 1-277 isoform Q01105-2): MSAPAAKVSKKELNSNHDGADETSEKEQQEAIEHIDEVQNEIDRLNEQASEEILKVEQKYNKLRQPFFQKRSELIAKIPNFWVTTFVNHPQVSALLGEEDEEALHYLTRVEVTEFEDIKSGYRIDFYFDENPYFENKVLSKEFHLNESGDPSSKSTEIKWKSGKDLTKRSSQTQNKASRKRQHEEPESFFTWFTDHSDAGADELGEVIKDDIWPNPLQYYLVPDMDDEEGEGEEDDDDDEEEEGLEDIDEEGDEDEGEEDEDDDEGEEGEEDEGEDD
Procedure: Thermophoresis analysis was performed during 30 s on a NanoTemper Monolith NT.115 instrument (20% LED, 40% MST power) at 25 °C.

[4] = tested on: BaF3-p210^T315I cells; assay: Survival study, intravenously injected tumor cells; assay type: in vivo, BALB/c mice; conditions: vehicle 25.5 days
Procedure: In survival study, BaF3-p210^T315I cells were injected into the tail vein of BALB/c mice (100 μL of a 1 × 10^7 cells suspension in serum free medium). […] Moribund animals were sacrificed as per institutional and national guidelines. Survival data were analyzed by the Kaplan Meier method and compared using the log-rank test.

[5] = tested on: PP2A; assay: PP2Ac immunoprecipitation phosphatase assay in K562 cells; assay type: cell-based, human
Procedure: PP2A assay from whole cell lysates was carried out using commercial PP2Ac immunoprecipitation phosphatase assay kit (Millipore). Briefly, 200 μg protein lysates prepared as described above, 4 μg PP2Ac-specific antibody, and 40 μL protein A-agarose were added to TBS buffer (20 mM Tris-HCl, 150 mM NaCl, and 0.1% Tween 20) to a final volume of 500 μL and immunoprecipitation was carried out at 4 °C for 2 h. The immunoprecipitates were used in the phosphatase reaction following the manufacturer's protocol.

[6] = tested on: BaF3-p210^T315I tumor xenografts; assay: In vivo anti-tumor efficacy, subcutaneous xenograft; design: species or system BALB/c mice; conditions: TGI1002 30, 45, 60 mg/kg; imatinib, ponatinib 10 mg/kg; i.p. daily
Procedure: BABL/c male mice from SLRC Experimental Animal Center were bred under pathogen-free conditions and were used for experiments at 6-8 weeks of age. Animal experiments were performed according to institutional and national guidelines. BaF3-p210^T315I cells were implanted subcutaneously into the right flank of nude mice (200 μL of a 1 × 10^7cells suspension in serum free medium). When tumors became large enough for caliper measurement, tumor volumes were calculated as (length × width^2) × 0.5. […] At the end of the experiments, tumors were dissected and photographed, and wet weights of each tumor were measured.

[7] = biological target: T2, recombinant human SET protein in full length (human, UniProt Q01105-2 1-277, labeled with RED fluorescent dye NT-647-NHS); assay: MST; serial dilutions of the peptide (up to 2 mM) mixed with 15 μM NT647-labeled SET protein, 10 min at room temperature, 20 mM PBS pH 8.0, 25 °C, Monolith NT.115 (20% LED, 40% MST power); conditions: both partners purified
T2 construct: human SET, full length, gene synthesized after GenBank AAA60318.1 and subcloned into pET-21a; also called SET oncoprotein; NT647-labeled SET protein
T2 sequence (Q01105 other isoform, or with tags, fused parts or gaps): as the sequence (Q01105 1-277 isoform Q01105-2) above

With `CO[C@H]1/C=C\C=C(/C)C(=O)NC2=CC(=O)C(NCCN(C)C)=C(C[C@@H](C)C[C@H](OC)[C@H](O)[C@@H](C)/C=C(\C)[C@@H]1OC(N)=O)C2=O` [17-DMAG, reference compound] the “expression level of BCR-ABL” value [1] was “significantly degraded”.

`Cc1ccc(NC(=O)c2cccc(CN3CCN(CC(=O)O)CC3)c2)cc1Oc1nccc(-c2cccnc2)n1` [TGI1002-COOH] was tested, and the “cytotoxicity compared to the parent compound TGI1002” value [2] was “comparable cytotoxicity”.

For `Cc1ccc(NC(=O)c2ccc(CN3CCN(C)CC3)cc2)cc1Nc1nccc(-c2cccnc2)n1` [imatinib, reference compound], the Kd value [3] was “did not bind SET to give a meaningful Kd value” and the median survival ([4]; 10 mg/kg i.p. once daily from day 5) was 25 days.

In the case of `C=C1[C@@H](O)[C@@H]2O[C@]3(CC[C@H](/C=C/[C@@H](C)[C@@H]4CC(C)=C[C@@]5(O[C@H](C[C@@](C)(O)C(=O)O)CC[C@H]5O)O4)O3)CC[C@H]2O[C@@H]1[C@@H](O)C[C@H](C)[C@H]1O[C@@]2(CCCCO2)CC[C@H]1C` [okadaic acid, reference compound], the “PP2A activity compared to control” value [5] is reported as “decreased significantly”.

`Cc1ccc(C(=O)Nc2ccc(CN3CCN(C)CC3)c(C(F)(F)F)c2)cc1C#Cc1cnc2cccnn12` [ponatinib, reference compound] was tested, and the “final tumor volume and weight compared to vehicle group” value [6] was “markedly lower” and the median survival [4] was 37 days.

B1: ApoE-mimetic peptide COG112 (peptide)
peptide: Ac-LRVRLASHLRKLRKRLL-NH2
notes: source: synthetic peptide (ChinaPeptides Co., Ltd, > 95% purity)
With B1 the Kd [7] was 4.4 ± 0.39 µM.
